Earlier results in patent publication US20100202983A1, “SELECTIVELY TARGETED ANTIMICROBIALS FOR THE TREATMENT OF PERIODONTAL DISEASE” (priority 2009, published 2010).

tested on: S. mutans; settings: cell culture

Row | Substance | efficacy for reducing the colony forming units of S. mutans
1 | FBRW-15: antimicrobial peptide useful in the present invention (IKQLLHFFQRFGGGRWRWRWF; FBRW-15) | efficacy has been demonstrated
2 | FBRW-16: antimicrobial peptide useful in the present invention (LKRFLKWFKRFGGGRWRWRWF; FBRW-16) | efficacy has been demonstrated
3 | FBRW-22: antimicrobial peptide useful in the present invention (RWRWRWFGGGFKKFWKWFRRF; FBRW-22) | efficacy has been demonstrated
4 | FBRW-24: antimicrobial peptide useful in the present invention (RWRWRWFGGGLKRFLKWFKRF; FBRW-24) | efficacy has been demonstrated
5 | FBα-20: antimicrobial peptide useful in the present invention (RWRRLLKKLHHLLHGGGFKKFWKWFRRF; FBalpha-20) | efficacy has been demonstrated
6 | FBα-21: antimicrobial peptide useful in the present invention (RWRRLLKKLHHLLHGGGIKQLLHFFQRF; FBalpha-21) | efficacy has been demonstrated

tested on: S. mutans; settings: not given

Row | Substance | efficacy for reducing the biofilms formed by S. mutans, and other microbial pathogenic microbes
7 | 1903 BD2-21: S. mutans-specific targeting peptide linked via linker peptide to an antimicrobial peptide (NIFEYFLEGGGKLFKFLRKHLL; selectively/specifically targeted antimicrobial peptide (STAMP) chimeric polypeptide 1903-BD2.21) | efficacy has been demonstrated
8 | C16 BD2.21: S. mutans-specific targeting peptide linked via linker peptide to an antimicrobial peptide (TFFRLFNRSFTQALGKGGGKLFKFLRKHLL; selectively/specifically targeted antimicrobial peptide (STAMP) chimeric polypeptide C16-BD2.21) | efficacy has been demonstrated
9 | C16G2: S. mutans-specific targeting peptide linked via linker peptide to an antimicrobial peptide (TFFRLFNRSFTQALGKGGGKNLRIIRKGIHIIKKY; selectively/specifically targeted antimicrobial peptide (STAMP) chimeric polypeptide C16G2) | efficacy has been demonstrated
10 | M8-33: S. mutans-specific targeting peptide linked via linker peptide to an antimicrobial peptide (TFFRLFNRSGGGFKKFWKWFRRF; selectively/specifically targeted antimicrobial peptide (STAMP) chimeric polypeptide M8-33) | efficacy has been demonstrated
11 | M8G2: S. mutans-specific targeting peptide linked via linker peptide to an antimicrobial peptide (TFFRLFNRGGGKNLRIIRKGIHIIKKY; selectively/specifically targeted antimicrobial peptide (STAMP) chimeric polypeptide M8G2) | efficacy has been demonstrated

tested on: Porphyromonas gingivalis and Streptococcus mitis; settings: Murakami et al., Infect. Immun. 59:3284 (1991)

Row | Substance | inhibition of coaggregation between Porphyromonas gingivalis and Streptococcus mitis
12 | Histatin 5: 24-residue peptide from human saliva with antifungal properties (DSHAKRHHGYKRKFHEKHHSHRGY; histatin 5 peptide) | inhibits coaggregation
